# Test results published in PubChem BioAssay (NCI).
#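 Exposure lasted 48 hours, with cells grown in 96-well plates and compounds tested at five concentrations. GI50 marks 50% less growth. TGI: total growth inhibition.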
# Assays:
# Assay in all cases: NCI tumour cell line growth inhibition, 48 h
# [1] = test system: UO-31 renal
# [2] = test system: 786-0 renal
# [3] = test system: SK-MEL-2 melanoma
# [4] = test system: KM12 colon
# [5] = test system: SK-MEL-5 melanoma
# [6] = test system: CCRF-CEM leukemia
# [7] = test system: IGROV1 ovarian
# [8] = test system: OVCAR-8 ovarian
# [9] = test system: M14 melanoma
# [10] = test system: SF-295 CNS
# [11] = test system: KM20L2 colon
# [12] = test system: HCC-2998 colon
# [13] = test system: NCI-H226 lung
# [14] = test system: SF-268 CNS
# [15] = test system: MALME-3M melanoma
# [16] = test system: ACHN renal
# [17] = test system: SNB-19 CNS
# [18] = test system: HL-60(TB) leukemia
# [19] = test system: SK-MEL-28 melanoma
# [20] = test system: SNB-78 CNS
# [21] = test system: RXF-631 renal
# [22] = test system: RPMI-8226 leukemia
# [23] = test system: NCI-H522 lung
# [24] = test system: TK-10 renal
# [25] = test system: CAKI-1 renal
# [26] = test system: LOX IMVI melanoma
# [27] = test system: MOLT-4 leukemia
# [28] = test system: SF-539 CNS
# [29] = test system: HT29 colon
# [30] = test system: SW-620 colon
# [31] = test system: DLD-1 colon
# [32] = test system: NCI-H460 lung
# [33] = test system: A549 NSCLC
# [34] = test system: RXF 393 renal
# [35] = test system: OVCAR-5 ovarian
# [36] = test system: SN12C renal
# [37] = test system: XF 498 CNS
# [38] = test system: LXFL 529 NSCLC
# [39] = test system: OVCAR-4 ovarian
# [40] = test system: NCI-H23 lung
# [41] = test system: SK-OV-3 ovarian
# [42] = test system: SR leukemia
# [43] = test system: K-562 leukemia
# [44] = test system: HOP-62 NSCLC
# [45] = test system: DMS 114 small cell lung
# [46] = test system: UACC-62 melanoma
# [47] = test system: HCT-15 colon
# [48] = test system: SNB-75 CNS
# [49] = test system: EKVX NSCLC
# [50] = test system: U251 CNS
# [51] = test system: HCT-116 colon
# [52] = test system: HOP-92 NSCLC
# [53] = test system: COLO 205 colon
# [54] = test system: OVCAR-3 ovarian
# [55] = test system: A498 renal
# [56] = test system: M19-MEL melanoma
# [57] = test system: UACC-257 melanoma
# [58] = test system: DMS 273 small cell lung
# [59] = test system: HOP-18 NSCLC
structure (smiles),measurement,setting,value
CC(=O)N/C(=C\c1cccc([N+](=O)[O-])c1)c1nc2c3c(ccc2[nH]1)C(=O)c1ccccc1C3=O,TGI,[1],> 69.3 µM
same,TGI,[2],> 100 µM
same,TGI,[3],> 100 µM
same,TGI,[4],> 100 µM
same,TGI,[5],> 100 µM
same,TGI,[6],> 100 µM
same,TGI,[7],> 100 µM
same,TGI,[8],> 100 µM
same,TGI,[9],> 100 µM
same,TGI,[10],> 100 µM
same,TGI,[11],> 100 µM
same,TGI,[12],> 100 µM
same,TGI,[13],> 100 µM
same,TGI,[14],> 100 µM
same,TGI,[15],> 100 µM
same,TGI,[16],47.9 µM
same,TGI,[17],> 100 µM
same,TGI,[18],59.8 µM
same,TGI,[19],> 100 µM
same,TGI,[20],> 100 µM
same,TGI,[21],> 100 µM
same,TGI,[22],> 100 µM
same,TGI,[23],99.8 µM
same,TGI,[24],> 100 µM
same,TGI,[25],> 100 µM
same,TGI,[26],> 100 µM
same,TGI,[27],> 62.9 µM
same,TGI,[28],> 100 µM
same,TGI,[29],> 100 µM
same,TGI,[30],> 100 µM
same,TGI,[31],> 100 µM
same,TGI,[32],> 100 µM
same,TGI,[33],> 100 µM
same,TGI,[34],> 100 µM
same,TGI,[35],> 100 µM
same,TGI,[36],> 100 µM
same,TGI,[37],> 100 µM
same,TGI,[38],> 100 µM
same,TGI,[39],> 100 µM
same,TGI,[40],> 100 µM
same,TGI,[41],> 100 µM
same,TGI,[42],> 100 µM
same,TGI,[43],> 100 µM
same,TGI,[44],> 100 µM
same,TGI,[45],> 100 µM
same,TGI,[46],> 100 µM
same,TGI,[47],> 100 µM
same,TGI,[48],> 100 µM
same,TGI,[49],> 100 µM
same,TGI,[50],> 100 µM
same,TGI,[51],> 100 µM
same,TGI,[52],> 100 µM
same,TGI,[53],> 100 µM
same,TGI,[54],> 100 µM
same,TGI,[55],> 100 µM
same,TGI,[56],> 100 µM
CSc1nc(NC(=O)O)c(N(C(C)=O)C(=O)O)c(=O)n1C,TGI,[1],> 100 µM
same,TGI,[2],> 100 µM
same,TGI,[3],> 100 µM
same,TGI,[4],> 100 µM
same,TGI,[5],> 100 µM
same,TGI,[6],> 100 µM
same,TGI,[7],> 100 µM
same,TGI,[8],> 100 µM
same,TGI,[9],> 100 µM
same,TGI,[10],> 100 µM
same,TGI,[11],> 100 µM
same,TGI,[12],> 100 µM
same,TGI,[13],> 100 µM
same,TGI,[14],> 100 µM
same,TGI,[15],> 100 µM
same,TGI,[16],> 100 µM
same,TGI,[17],> 100 µM
same,TGI,[18],> 100 µM
same,TGI,[57],> 100 µM
same,TGI,[19],> 100 µM
same,TGI,[20],> 100 µM
same,TGI,[21],> 100 µM
same,TGI,[22],> 100 µM
same,TGI,[25],> 100 µM
same,TGI,[26],> 100 µM
same,TGI,[27],> 100 µM
same,TGI,[28],> 100 µM
same,TGI,[29],> 100 µM
same,TGI,[30],> 100 µM
same,TGI,[31],> 100 µM
same,TGI,[32],> 100 µM
same,TGI,[33],> 100 µM
same,TGI,[34],> 100 µM
same,TGI,[35],> 100 µM
same,TGI,[36],> 100 µM
same,TGI,[37],> 100 µM
same,TGI,[38],> 100 µM
same,TGI,[39],> 100 µM
same,TGI,[43],> 100 µM
same,TGI,[45],> 100 µM
same,TGI,[46],> 100 µM
same,TGI,[47],> 100 µM
same,TGI,[49],> 100 µM
same,TGI,[50],> 100 µM
same,TGI,[51],> 100 µM
same,TGI,[52],> 100 µM
same,TGI,[53],> 100 µM
same,TGI,[54],> 100 µM
same,TGI,[58],> 100 µM
same,TGI,[55],> 100 µM
same,TGI,[56],> 100 µM
CCC[CH2][Sn]([CH2]CCC)([O]C(=O)C(N)CSC)[O]C(=O)C(N)CSC (configuration not stated),GI50,[1],14.3 µM
same,TGI,[1],27.4 µM
same,GI50,[2],8.14 µM
same,TGI,[2],21.8 µM
same,GI50,[3],2.78 µM
same,TGI,[3],8.79 µM
same,GI50,[4],13.3 µM
same,TGI,[4],29.4 µM
same,GI50,[5],11.6 µM
same,TGI,[5],25 µM
same,GI50,[6],1.73 µM
same,TGI,[6],6.43 µM
same,GI50,[7],17.8 µM
same,TGI,[7],34.2 µM
same,GI50,[8],12.6 µM
same,TGI,[8],38.1 µM
same,GI50,[9],10.5 µM
same,TGI,[9],16.2 µM
same,GI50,[11],18.6 µM
same,TGI,[11],53.4 µM
same,GI50,[12],13.1 µM
same,TGI,[12],30.5 µM
same,GI50,[13],20.5 µM
same,TGI,[13],34.9 µM
same,GI50,[14],4.06 µM
same,TGI,[14],11.3 µM
same,GI50,[15],7.19 µM
same,TGI,[15],48.7 µM
same,GI50,[16],12.3 µM
same,TGI,[16],30.2 µM
same,GI50,[17],12.1 µM
same,TGI,[17],24.6 µM
same,GI50,[57],11.8 µM
same,TGI,[57],26.1 µM
same,GI50,[19],5.86 µM
same,TGI,[19],18.2 µM
same,GI50,[20],3.17 µM
same,TGI,[20],9.64 µM
same,GI50,[21],3.16 µM
same,TGI,[21],17.3 µM
same,GI50,[22],2.16 µM
same,TGI,[22],7.58 µM
same,GI50,[59],10.2 µM
same,TGI,[59],21.8 µM
same,GI50,[23],1.34 µM
same,TGI,[23],3.39 µM
same,GI50,[24],9.03 µM
same,TGI,[24],21.5 µM
same,GI50,[25],5 µM
same,TGI,[25],17.4 µM
same,GI50,[26],7.17 µM
same,TGI,[26],26.3 µM
same,GI50,[27],2.42 µM
same,TGI,[27],7.65 µM
same,GI50,[28],13.3 µM
same,TGI,[28],26.7 µM
same,GI50,[29],17.2 µM
same,TGI,[29],44.7 µM
same,GI50,[30],6.08 µM
same,TGI,[30],23 µM
same,GI50,[31],6.44 µM
same,TGI,[31],18.3 µM
same,GI50,[32],29.7 µM
same,TGI,[32],90.1 µM
same,GI50,[33],27.7 µM
same,TGI,[33],> 79.7 µM
same,GI50,[34],6.83 µM
same,TGI,[34],18.8 µM
same,GI50,[35],15.7 µM
same,TGI,[35],35.6 µM
same,GI50,[36],8.82 µM
same,TGI,[36],23.4 µM
same,GI50,[37],5.54 µM
same,TGI,[37],19 µM
same,GI50,[38],0.969 µM
same,TGI,[38],3.49 µM
same,GI50,[39],13 µM
same,TGI,[39],26.1 µM
same,GI50,[40],2.75 µM
same,TGI,[40],13.1 µM
same,GI50,[43],0.846 µM
same,TGI,[43],7.81 µM
same,GI50,[45],2.72 µM
same,TGI,[45],12.8 µM
same,GI50,[46],10.4 µM
same,TGI,[46],23 µM
same,GI50,[47],11.6 µM
same,TGI,[47],25.4 µM
same,GI50,[48],10 µM
same,TGI,[48],31.6 µM
same,GI50,[49],12.1 µM
same,TGI,[49],27.1 µM
same,GI50,[50],11.3 µM
same,TGI,[50],25.1 µM
same,GI50,[51],11.6 µM
same,TGI,[51],24.7 µM
same,GI50,[52],8.05 µM
same,TGI,[52],20.3 µM
same,GI50,[53],6.5 µM
same,TGI,[53],19.9 µM
same,GI50,[54],12.5 µM
same,TGI,[54],25.4 µM
same,GI50,[55],3.91 µM
same,GI50,[56],6.65 µM
same,TGI,[56],19.5 µM
